{"source": "patent US20190060340A1", "about": "“NOVEL AMINOGLYCOSIDES AND USES THEREOF IN THE TREATMENT OF GENETIC DISORDERS” (Technion Research & Development Foundation Limited, priority 2007, published 2019)", "origin": "cited, not measured here", "key": {"stop mutations": {"system": "stop mutations", "conditions": "literature; cited from earlier work"}, "[1]": {"conditions": "available toxicity data on aminoglycosides; unit inferred; cited from earlier work"}}, "data": [{"smiles": "NC[C@@H]1O[C@@H](O[C@H]2[C@H](O)[C@@H](O[C@H]3O[C@H](CO)[C@@H](O)[C@H](N)[C@H]3O)[C@H](N)C[C@@H]2N)[C@@H](O)[C@H](O)[C@H]1O", "note": "[kanamycin A]", "values": [{"measurement": "stop mutations suppression / read-through activity", "setting": "stop mutations", "result": "does not show any read-through activity"}, {"measurement": "LD50", "setting": "[1]", "result": 280, "unit": "mg/kg"}]}]}
